According to patent US9453023B2, “Substituted phenyl cycloalkyl pyrrolidine (piperidine) spirolactams and amides, preparation and therapeutic use thereof” (SANOFI, priority 2010, dated 2016):

biological target: rhesus (Macacca Mulatta) H3 receptor (Macaca mulatta, UniProt Q865E1); assay: Rhesus H3 radioligand binding assay ([3H]-Methylhistamine, WGA SPA); design: species or system rhesus monkey (Macacca Mulatta); conditions: displacement of [3H]-Methylhistamine (2 nM) from rhesus H3 receptor membranes; Cheng-Prusoff
Description: (Genbank #AY231164). Stably transfected cultures were amplified in tissue culture flasks by standard tissue culture methods and induced to express rhesus H3 by exposure to 500 ng/ml tetracycline (Cellgro) for 24 hours. After induction, cells were dissociated from flasks utilizing Cell Stripper (Cellgro). Cells were centrifuged (1K×g, 5 min) and pellet frozen in an ethanol-dry ice bath to disrupt cell membranes. Frozen cell pellet was re-suspended in 5 mM HEPES (pH 7.4, Invitrogen) at 10 ml/1000 cm2 of harvested cells. The cell suspension was drawn through an 18 gauge needle (2-3×) followed by a 23 gauge needle (2-3×) to further disrupt cell membranes. The cell suspension was centrifuged (40K×g, 30 min). Cell membrane pellet was re-suspended in 5 mM HEPES (pH 7.4, Invitrogen) at a final protein concentration of 10 mg/ml. Rhesus H3 membranes were stored under liquid nitrogen prior to use in [3H]-Methylhistamine and GTPγS radioligand binding assays.
Rhesus H3 radioligand binding assay was performed using rhesus H3 receptor membranes (prepared as described above), [3H]-Methylhistamine (Perkin Elmer) and WGA SPA beads (wheat germ agglutinin scintillation proximity assay) beads (Amersham). The assay was performed in 96-well Opti-Plates (Packard). Each reaction contained 50 μl rhesus H3 membranes (20-30 μg total protein), 50 μl WGA SPA beads (0.1 μg) and 50 μl of 83 Ci/mmol [^3H]-Methylhistamine (final concentration 2 nM) and 50 μl of tested compound. The compounds of this invention and/or vehicle were diluted with binding buffer from 10 mM DMSO stocks. Assay plates were sealed with TopSeal (Perkin Elmer) and mixed on shaker (25° C., 1 hour). Assay plates were read on TopCount scintillation counter (Packard). Results were analyzed by Hill transformation and Ki values were determined by Cheng-Prusoff equation.

Chain of rhesus (Macacca Mulatta) H3 receptor (Q865E1 1-445): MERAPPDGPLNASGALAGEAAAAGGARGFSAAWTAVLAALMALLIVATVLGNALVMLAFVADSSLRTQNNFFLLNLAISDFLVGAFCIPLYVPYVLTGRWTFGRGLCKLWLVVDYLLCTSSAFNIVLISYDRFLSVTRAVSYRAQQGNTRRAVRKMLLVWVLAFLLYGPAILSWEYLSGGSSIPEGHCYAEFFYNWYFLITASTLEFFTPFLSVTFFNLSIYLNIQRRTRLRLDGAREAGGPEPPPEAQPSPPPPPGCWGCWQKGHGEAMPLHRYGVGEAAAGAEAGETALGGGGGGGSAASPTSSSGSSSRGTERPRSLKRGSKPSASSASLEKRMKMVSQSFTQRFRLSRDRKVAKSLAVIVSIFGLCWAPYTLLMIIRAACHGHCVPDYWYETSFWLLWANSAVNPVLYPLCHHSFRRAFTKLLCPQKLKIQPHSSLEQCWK

Ki [µM]	Structure (SMILES)
0.379	CC(C)(C)OC(=O)N1CCC2(CC1)CCN(c1ccc([C@H]3CC[C@H](N4CCCC4)CC3)cc1F)C2=O [Example 13, 2-[2-Fluoro-4-(4-pyrrolidin-1-yl-cyclohexyl)-phenyl]-1-oxo-2,8-diaza-spiro[4.5]decane-8-carboxylic acid tert-butyl ester]
0.0326	Cc1ccccc1C(=O)Nc1ccc([C@H]2CCC(N3CCC[C@@H]3C)C2)cc1 (stereo partly drawn) [Example 33, 2-Methyl-N-{4-[(S)-3-((S)-2-methyl-pyrrolidin-1-yl)-cyclopentyl]-phenyl}-benzamide]
0.118	CC(=O)N1CCC(C(=O)Nc2ccc([C@H]3CCC(N4CCC[C@@H]4C)C3)cc2)CC1 (stereo partly drawn) [Example 22, 1-Acetyl-piperidine-4-carboxylic acid {4-[(S)-3-((S)-2-methyl-pyrrolidin-1-yl)-cyclopentyl]-phenyl}-amide]
